Measured values as given in patent US20250206773A1, “FORMS AND COMPOSITIONS OF SODIUM CHENODEOXYCHOLATE” (Syntis Bio, Inc., priority 2022, published 2025).
Like-named read-outs stand apart in the source and are kept apart here.

Legend:
[1] = assay type: physicochemical
Procedure: HPLC analysis was carried out on an Agilent 1260 Infinity chromatograph, using a Hichrom C18 column 100×4.6 mm, 3.5 m, at 40° C. Method details were as follows: [table] Around 10 mg of NaCDC Form B was weighed into 1.6 mL HPLC vials. 3-5 mm PTFE-covered cylindrical magnetic stirring bars were added to the vials. […] The vials were visually inspected before each addition to check for the dissolution of the starting material, and the solvent addition was stopped when a complete dissolution was observed. The clear solutions were left to rest at RT. […] The experiments were held at each temperature for 1 h, and then they were visually inspected to see if dissolution occurred. At the end of the experimental time, the magnetic stirring bars were removed, and all slurries or solutions were dried at different temperatures depending on the boiling points of each solvent used (i.e., at 30° C., 20-21 mbar or 50° C., 21 mbar, for 21 hours; with the exception of experiments SASO7, SAS33, SAS34, SAS35, SAS36 and SAS45 which were dried at 50° C. for 43 hours). All the resulting solids were analyzed by XRPD. For several selected experiments, HPLC analysis was performed. The solids that gave new XRPD patterns were investigated by TGA/DSC. [table]

[2] = Polymorph screening: slurry (XRPD, HPLC of recovered solids); assay type: physicochemical; settings: slurry 7 days
Procedure: Around 15 mg of NaCDC Form B was weighted into HPLC vials, and the appropriate volume of solvent was added at RT. Slurries were aged for 7 days under stirring (500 rpm), at multiple temperatures: 5° C., 25-30° C., 40° C., and 50° C. All solids were air-dried on filter paper and then analyzed by XRPD. Depending on the results obtained by XRPD and material availability, some experiments were analyzed by HTPLC and TG/DSC.

[3] = SL70, Methyl ethyl ketone (MEK), 50° C.

HPLC (%) 212 nm ([1]; SAS03, Ethanol (EtOH), solid after evaporation A (30° C., 21 hours)): 71.5% | HPLC (%) 212 nm ([1]; SAS04, 2-Propanol (2-PrOH), solid after evaporation A (30° C., 21 hours)): 96.6% | HPLC (%) 212 nm ([1]; SAS05, 2-Methyl-1-propanol (Isobutanol), solid after evaporation A (30° C., 21 hours)): 96.5% | HPLC (%) 212 nm ([1]; SAS06, 2-Butanol, solid after evaporation A (30° C., 21 hours)): 97.5% | HPLC (%) 212 nm ([1]; SAS07, 2-Ethoxyethanol, solid after evaporation C (50° C., 43 hours)): 38.0% | HPLC (%) 212 nm ([1]; SAS08, 2,2,2-Trifluoroethanol (TFE), solid after evaporation A (30° C., 21 hours)): 91.3% | HPLC (%) 212 nm ([1]; SAS09, 3-Methyl-1-butanol (Isoamyl alcohol), solid after evaporation B (50° C., 21 hours)): 48.1% | HPLC (%) 212 nm ([1]; SAS20, n-Butyl acetate, solid after evaporation B (50° C., 21 hours)): 96.3% | HPLC (%) 212 nm ([1]; SAS24, Diisopropyl ether, solid after evaporation A (30° C., 21 hours)): 94.4% | HPLC (%) 212 nm ([1]; SAS33, Benzonitrile, solid after evaporation C (50° C., 43 hours)): 68.0% | HPLC (%) 212 nm ([1]; SAS34, N,N-Dimethyl-acetamide, solid after evaporation C (50° C., 43 hours)): 1.2% | HPLC (%) 212 nm ([1]; SAS35, N-Methyl-pyrrolidone, gel after evaporation C (50° C., 43 hours)): 1.5% | HPLC (%) 212 nm ([1]; SAS36, Dimethyl sulfoxide (DMSO), solid after evaporation C (50° C., 43 hours)): 32.4% | HPLC (%) 212 nm ([1]; SAS39, EtOH:MeCN (1:1 v/v), solid after evaporation A (30° C., 21 hours)): 80.1% | HPLC (%) 212 nm ([1]; SAS40, H2O:THF (1:1 v/v), solid after evaporation A (30° C., 21 hours)): 77.5% | HPLC (%) 212 nm ([1]; SAS41, H2O:EtOH (1:1 v/v), solid after evaporation A (30° C., 21 hours)): 90.7% | HPLC (%) 212 nm ([1]; SAS42, H2O:2-PrOH (1:1 v/v), solid after evaporation A (30° C., 21 hours)): 92.0% | HPLC (%) 212 nm ([1]; SAS43, H2O:MeCN (1:1 v/v), solid after evaporation A (30° C., 21 hours)): 91.1% | HPLC (%) 212 nm ([1]; SAS44, H2O:Acetone (1:1 v/v), solid after evaporation A (30° C., 21 hours)): 93.7% | HPLC (%) 212 nm ([1]; SAS45, H2O:DMSO (1:1 v/v), solid after evaporation C (50° C., 43 hours)): 30.2% | HPLC (%) 212 nm ([1]; SAS46, MeOH:EtOAc (1:1 v/v), solid after evaporation A (30° C., 21 hours)): 89.0% | HPLC (%) 212 nm ([1]; SAS47, MeOH:Acetone (1:1 v/v), solid after evaporation A (30° C., 21 hours)): 91.0% | HPLC (%) 212 nm ([1]; SAS48, EtOH:n-Heptane (1:1 v/v), solid after evaporation A (30° C., 21 hours)): 90.1% | HPLC purity of recovered solids (dropped from 99.2%) ([1]; experiments with 2-ethoxyethanol, 3-methyl-1-butanol, benzonitrile, DMAc, NMP, DMSO, H2O:DMSO (1:1 v/v)): 1.2-68.0% | HPLC purity (%) at 212 nm ([2]; SL01, Ethanol (EtOH), 5° C.): 89.70% | XRPD ([2]; SL05, Methylcyclohexane, 5° C.): SM, P.O. | XRPD ([2]; SL06, n-Heptane, 5° C.): SM, l.c. | HPLC purity (%) at 212 nm ([2]; SL13, tert-Butyl methyl ether, 5° C.): 87.21% | XRPD ([2]; SL15, Tetrahydrofuran (THF), 5° C.): SM, l.c. | XRPD ([2]; SL19, Acetonitrile (MeCN), 5° C.): SM, l.c. | HPLC purity (%) at 212 nm ([2]; SL22, EtOH:MeCN (1:1 v/v), 5° C.): 91.93% | HPLC purity (%) at 212 nm ([2]; SL23, EtOH:n-Heptane (1:1 v/v), 5° C.): 93.64% | HPLC purity (%) at 212 nm ([2]; SL26, Ethanol (EtOH), 25-30° C.): 92.34% | HPLC purity (%) at 212 nm ([2]; SL27, 2-Propanol (2-PrOH), 25-30° C.): 88.33% | XRPD ([2]; SL28, 2-Methyl-1-propanol (Isobutanol), 25-30° C.): l.c., SM | XRPD ([2]; SL29, 2-Butanol, 25-30° C.): SM, l.c. | XRPD ([2]; SL31, Methylcyclohexane, 25-30° C., solvent almost evap./consumed on the 7th day): SM, l.c. | HPLC purity (%) at 212 nm ([2]; SL39, tert-Butyl methyl ether, 25-30° C.): 84.05% | XRPD ([2]; SL41, Tetrahydrofuran (THF), 25-30° C.): SM, l.c. | HPLC purity (%) at 212 nm ([2]; SL48, EtOH:MeCN (1:1 v/v), 25-30° C.): 83.87% | HPLC purity (%) at 212 nm ([2]; SL49, EtOH:n-Heptane (1:1 v/v), 25-30° C.): 93.06% | HPLC purity (%) at 212 nm ([2]; SL52, Ethanol (EtOH), 40° C.): 87.98% | HPLC purity (%) at 212 nm ([2]; SL56, 2-Propanol (2-PrOH), 50° C.): 84.92% | XRPD ([2]; SL60, n-Heptane, 50° C., solvent almost evap./consumed on 7th day): l.c., SM | HPLC purity (%) at 212 nm ([2]; SL68, Tetrahydrofuran (THF), 50° C.): 78.16% | HPLC purity (%) at 212 nm [2, 3]: 90.88% | XRPD [2, 3]: SM, h.c. | HPLC purity (%) at 212 nm ([2]; SL74, EtOH:MeCN (1:1 v/v), 50° C.): 78.36% | HPLC purity (%) at 212 nm ([2]; SL75, EtOH:n-Heptane (1:1 v/v), 50° C.): 85.10%
SMILES: C[C@H](CCC(=O)[O-])[C@H]1CC[C@H]2[C@@H]3[C@H](O)C[C@@H]4C[C@H](O)CC[C@]4(C)[C@H]3CC[C@]12C.[Na+] [Form B, sodium chenodeoxycholate]
